Experimental data reported in US11732029B2, “Methods and compositions for the treatment of wounds” (The University of Chicago, priority 2017, dated 2023).
Entries after “also recorded” stand apart in the source; their conditions may differ.

T1: VEGF-A165 (Homo sapiens, UniProt P15692)
T1 construct: All growth factors (GFs) and chemokines were purchased in their mature forms; purchased PeproTech; host or cells: Escherichia coli
T1 sequence (P15692 27-191 isoform P15692-4 limits assumed): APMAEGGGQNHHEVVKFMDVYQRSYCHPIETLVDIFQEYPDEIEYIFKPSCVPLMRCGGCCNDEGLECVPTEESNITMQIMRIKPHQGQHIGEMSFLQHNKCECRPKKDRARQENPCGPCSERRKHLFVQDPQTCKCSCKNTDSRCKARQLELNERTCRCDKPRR

T2: VEGF-A145 (Homo sapiens, UniProt P15692)
T2 construct: All GFs and chemokines were purchased in their mature forms; purchased R & D Systems
T2 sequence (P15692 27-171 isoform P15692-6 limits assumed): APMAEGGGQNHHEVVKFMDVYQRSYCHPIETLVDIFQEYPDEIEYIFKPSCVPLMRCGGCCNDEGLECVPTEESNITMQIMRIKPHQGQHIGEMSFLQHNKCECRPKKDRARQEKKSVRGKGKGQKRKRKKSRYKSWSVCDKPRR

T3: PlGF-2 (Homo sapiens, UniProt P49763)
T3 sequence (P49763 19-170 isoform P49763-3 limits assumed): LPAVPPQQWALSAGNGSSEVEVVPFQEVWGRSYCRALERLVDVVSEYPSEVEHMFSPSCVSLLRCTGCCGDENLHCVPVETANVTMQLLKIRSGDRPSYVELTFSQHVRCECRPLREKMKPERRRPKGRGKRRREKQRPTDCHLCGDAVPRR


Tests used:
[1] = biological target: T1, VEGF-A165; test: vWF binding to recombinant VEGF-A isoforms (ELISA); conditions: plate coated with 50 nM vWF domains, 1 μg/mL VEGF-A, vs BSA
Procedure: (§1) ELISA was performed as previously reported1. In brief, ELISA plates (med binding: Greiner Bio-One) were coated with 50 nM BSA (GE Healthcare), pro-peptide containing recombinant vWF (Sino Biological), plasma-derived vWF (EMD Millipore), recombinant human vWF A1 domain (U-Protein Express), recombinant human vWF A2 domain (R & D systems), recombinant human vWF A3 domain (U-Protein Express), vWF A1 HBD peptide or scrambled/mutated HBD peptide (all peptides were synthesized by Genscript). After blocking with 2% BSA solution containing PBS-T, 1 μg/mL of recombinant human VEGF-A121 (PeproTech), recombinant human VEGF-A145 (R & D Systems), or recombinant human VEGF-A165 (PeproTech) was added. Bound VEGF-A was detected with 1 μg/mL of mouse anti-human VEGF-A antibody (clone: 26503, R & D systems). After 60 min of incubation, horseradish peroxidase (HRP) conjugated goat anti-mouse antibody (1:2000 dilution, Dako) was added and incubated for another 60 min. Color development and the absorbance measurement were done as described above.

[2] = biological target: T2, VEGF-A145; test: vWF binding to recombinant VEGF-A isoforms (ELISA); conditions: plate coated with 50 nM vWF domains, 1 μg/mL VEGF-A, vs BSA
Procedure: as §1

[3] = test system: GFs; test: GF binding to synthesized laminin peptides (ELISA), all tested GFs together; parameters: species or system human; key to Interaction with GFs: ++ indicates high affinities; + indicates medium/low affinities; conditions: for binding to the tested GFs: ELISA, statement for all tested GFs (VEGF-A, PlGF, PDGF-BB, FGF-2); for Interaction with GFs: summary Table 2
Procedure: (§2) ELISA tests were performed as described above. In brief, ELISA plates were coated with 1 μg/mL of laminin alpha 3 LG domain recombinant protein, laminin alpha 4 LG domain recombinant protein (R&D systems), laminin alpha 5 LG domain recombinant protein (LD BioPharma), or laminin peptide (sequences are described in Table 1, chemically synthesized by Genscript) in PBS for 2 hrs at 37° C. 1 μg/mL of BSA served as non-binding protein control. After blocking with 2% BSA PBS-0.05% Tween 20 (PBS-T) solution, 1 μg/mL of the recombinant human proteins (VEGF-A121, VEGF-A165, PlGF-1, PlGF-2, PDGF-BB or FGF-2) or 10 μg/mL of biotinylated heparin (Sigma-Aldrich) were added. Bound GF was detected with biotinylated antibodies for human VEGF, PlGF, PDGF-BB, or FGF-2 (R&D Systems). The antibodies were detected by streptavidin-HRP (R&D Systems).

[4] = test system: syndecan-1, syndecan-2, syndecan-3, syndecan-4; test: Recombinant syndecan binding to synthesized laminin HBD peptides (ELISA); parameters: species or system human; key to Interaction with Syndecans: ++ indicates high affinities; + indicates medium/low affinities; conditions: for binding to recombinant syndecans (syndecan 1-4): ELISA, peptide-coated plate, 1 μg/mL syndecan; for Interaction with Syndecans: summary Table 2
Procedure: ELISA tests were performed as described above. In brief, ELISA plates were coated with 1 μg/mL laminin peptide (sequences are described in Table 1, chemically synthesized by Genscript) in PBS for 2 hrs at 37° C. 1 μg/mL of BSA served as non-binding protein control. After blocking with 2% BSA PBS-T solution, 1 μg/mL of the recombinant human syndecan-1, syndecan-2, syndecan-3, syndecan-4 (all syndecan proteins are histidine-tagged; SinoBiological) were added. Bound GF was detected with anti-histidine tag antibody (1:1000 dilution, BioLegend).

[5] = Heparin binding to synthesized laminin peptides (ELISA); parameters: key to Interaction with Heparin: ++ indicates high affinities; + indicates medium/low affinities; conditions: for binding to heparin: ELISA, peptide-coated plate, 10 μg/mL biotinylated heparin; for Interaction with Heparin: summary Table 2
Procedure: as §2

[6] = biological target: T1, VEGF-A165; test: GF binding to recombinant laminin LG domain protein and synthesized laminin HBD peptides (ELISA); conditions: plate coated with LG domain protein or peptide, 1 μg/mL GF, vs BSA-coated wells
Procedure: as §2

[7] = test system: human lung fibroblasts; test: Cell adhesion assay, fibroblasts on laminin peptide coated plates; format: cell-based; parameters: key to Cell adhesion Fibroblasts: ++ indicates high affinities; + indicates medium/low affinities; conditions: for fibroblast attachment: peptide-coated plates, 30 min at 37° C., without EDTA; for Cell adhesion Fibroblasts: summary Table 2
Procedure: (§3) 96-well plates (non-tissue culture treated, Greiner Bio-one) were pre-coated with 1 μg/mL with laminin HBD peptides in PBS for 2 hrs at 37° C., followed by blocking with 2% BSA PBS for 1 h at RT. Cell adhesion assays were performed using human lung fibroblasts (Lonza) in FGM-2 medium (Lonza) or human umbilical vein endothelial cells (HUVEC; Lonza) in EGM-2 medium (Lonza) supplemented with 1% fetal bovine serum (FBS) and […] VEGF-A165, with or without 5 mM EDTA (Sigma-Aldrich). Cells were plated at 3000 cells/well on laminin peptide pre-coated plates and incubated for 30 min at 37° C., 5% CO2. Then, the medium was removed, and wells were quickly washed three times with PBS. Cell numbers were quantified using a CyQUANT assay, according to the manufacturer's instructions (Invitrogen). All cell lines were checked for mycoplasma contamination and used in passages from 5 to 8.

[8] = biological target: T4, PDGF-BB (Homo sapiens, UniProt P01127); test: GF binding to recombinant laminin LG domain protein and synthesized laminin HBD peptides (ELISA); conditions: plate coated with LG domain protein or peptide, 1 μg/mL GF, vs BSA-coated wells
T4 construct: All growth factors (GFs) and chemokines were purchased in their mature forms; purchased PeproTech; host or cells: Escherichia coli
T4 sequence (P01127 82-190 limits assumed): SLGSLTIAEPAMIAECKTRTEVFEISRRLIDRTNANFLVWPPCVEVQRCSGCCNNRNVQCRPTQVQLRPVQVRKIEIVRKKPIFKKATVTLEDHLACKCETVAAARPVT
Procedure: as §2

[9] = biological target: FGF-2 (Homo sapiens, UniProt P09038); test: as above; parameters: All growth factors (GFs) and chemokines were purchased in their mature forms; purchased PeproTech; host or cells: Escherichia coli; conditions: plate coated with LG domain protein or peptide, 1 μg/mL GF, vs BSA-coated wells
FGF-2, sequence (P09038 143-288): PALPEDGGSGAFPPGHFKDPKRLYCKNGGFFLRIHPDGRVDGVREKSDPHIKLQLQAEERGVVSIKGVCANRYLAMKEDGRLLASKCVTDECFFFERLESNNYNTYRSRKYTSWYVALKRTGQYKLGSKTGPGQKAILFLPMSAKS
Procedure: as §2

[10] = biological target: T3, PlGF-2; test: as above; parameters: All growth factors (GFs) and chemokines were purchased in their mature forms; purchased PeproTech; host or cells: Escherichia coli; conditions: plate coated with LG domain protein or peptide, 1 μg/mL GF, vs BSA-coated wells
Procedure: as §2

[11] = test system: HUVEC; test: Cell adhesion assay, HUVEC on laminin peptide coated plates; format: cell-based, human; parameters: key to Cell adhesion HUVECs: ++ indicates high affinities; + indicates medium/low affinities; conditions: for HUVEC attachment: peptide-coated plates, 30 min at 37° C., without EDTA; for Cell adhesion HUVECs: summary Table 2
Procedure: as §3

| Molecule | binding to VEGF-A165 [1] | binding to VEGF-A145 [2] | binding to the tested GFs [3] | binding to recombinant syndecans (syndecan 1-4) [4] | Interaction with Syndecans [4] | binding to heparin [5] | binding to VEGF-A165 [6] | fibroblast attachment [7] | Cell adhesion Fibroblasts [7] | Interaction with GFs [3] | binding to PDGF-BB [8] | Interaction with Heparin [5] | binding to FGF-2 [9] | binding to PlGF-2 [10] | HUVEC attachment [11] | Cell adhesion HUVECs [11] |
| --- | --- | --- | --- | --- | --- | --- | --- | --- | --- | --- | --- | --- | --- | --- | --- | --- |
| A3: recombinant human vWF A3 domain (U-Protein Express) | no binding | no binding |  |  |  |  |  |  |  |  |  |  |  |  |  |  |
| ARKASRRSRQPARH [α53312-3325, laminin α5 chain linker peptide, 14 aa] |  |  | did not show particular binding to any tested GF | weak binding | + | did not bind to heparin |  |  |  |  |  |  |  |  |  |  |
| KNSFMALYLSKGR [α33031-3043, laminin α3 chain LG4-derived peptide, 13 aa] |  |  |  | weak binding | + | non-heparin binding | bound | enhancement of fibroblast attachment | + | + |  |  |  |  |  |  |
| PLFLLHKKGKNLSKPKASQNKKGGKSK [α41408-1434, laminin α4 chain linker peptide, 27 aa] |  |  |  | significant binding | ++ | bound to heparin | bound |  |  | ++ | bound | ++ | bound | bound |  |  |
| PPFLMLLKGSTRFNKTKTFR [α32932-2951, laminin α3 chain LG3-LG4 linker peptide, 20 aa] |  |  |  | weak binding | + | bound to heparin | preferentially bound | enhancement of fibroblast attachment | + | + |  | ++ | preferentially bound |  | promoted HUVEC attachment | + |
| RQRSRPGRWHKVSVRWEKNR [α53417-3436, laminin α5 chain LG4-derived peptide, 20 aa] |  |  |  | significant binding | ++ | bound to heparin | bound | enhancement of fibroblast attachment | + | ++ | bound | ++ | bound | bound |  |  |
| TLFLAHGRLVYMFNVGHKKLKIR [α41521-1543, laminin α4 chain LG4-derived peptide, 23 aa] |  |  |  | significant binding | ++ | bound to heparin |  | enhancement of fibroblast attachment | + | + | not statistically significant | ++ |  |  | promoted HUVEC attachment | + |
| TLPDVGLELEVR [α53539-3550, laminin α5 chain LG5-derived peptide, 12 aa] |  |  | significantly bound to all tested GFs | did not show binding |  | did not show binding to heparin; also recorded: non-heparin binding |  |  |  | + |  |  |  |  |  |  |
| TPGLGPRGLQATARKASRRSRQPARHPACML [α53300-3330, laminin α5 chain linker peptide, 31 aa] |  |  |  | significant binding | ++ | bound to heparin | preferentially bound |  |  | + |  | ++ |  | preferentially bound |  |  |
| pro-peptide-containing recombinant vWF: immature, pro-peptide containing recombinant vWF (Sino Biological) | bind |  |  |  |  |  |  |  |  |  |  |  |  |  |  |  |
| vWF A2: recombinant human vWF A2 domain (R & D systems) (protein) DVAFVLEGSDKIGEADFNRSKEFMEEVIQRMDVGQDSIHVTVLQYSYMVTVEYPFSEAQSKGDILQRVREIRYQGGNRTNTGLALRYLSDHSFLVSQGDREQAPNLVYMVTGNPASDEIKRLPGDIQVVPIGVGPNANVQELERIGWPNAPILIQDFETLPREAPDLV | no binding | no binding |  |  |  |  |  |  |  |  |  |  |  |  |  |  |
